Values after ≈ are worked out from the molar mass of the structure shown. Structures can show the parent of a compound that is named as a salt. Where two headings read alike, the source gives them in different places.
Legend:
[1] = Metabolic stability in human liver microsomes (LM), LC-MS/MS (first table); assay type: in vitro ADME; conditions: for microsomal CLint: Table 1, read-out: Human LM CLint (μL/min/mg protein); for half-life: Table 1, read-out: Human LM t1/2
Procedure: (§1) Metabolism of compound(s) to release (+)-α-DTHBZ was determined by the half-life (t1/2) and intrinsic clearance (CIint) in human plasma (PS) and liver microsomes (LM) using tandem mass spectrometry (LC-MS/MS).

[2] = Stability in human plasma (PS), LC-MS/MS; assay type: in vitro ADME; conditions: for half-life: read-out: Human PS t1/2
Procedure: as §1

[3] = LM stability assay, human (second table); assay type: in vitro ADME; conditions: human liver microsomes, Table 2; for microsomal CLint: read-out: LM stability assay Human Clint (μL/min/mg protein); for half-life: read-out: LM stability assay Human t1/2
Procedure: Metabolism of compound(s) to release (+)-α-DTHBZ was determined by the half-life (t1/2) and intrinsic clearance (CIint) in human liver microsomes (LM) using tandem mass spectrometry (LC-MS/MS).

[4] = Heps. stability assay, human cryopreserved hepatocytes; assay type: in vitro ADME; conditions: for microsomal CLint: read-out: Heps. stability assay Human Clint (μL/min/mg protein); for half-life: read-out: Heps. stability assay Human t1/2
Procedure: Metabolism of compound(s) to release (+)-α-DTHBZ was determined by the half-life (t1/2) and intrinsic clearance (CIint) in human cryopreserved hepatocytes using tandem mass spectrometry (LC-MS/MS).

[5] = Kinetic solubility in PBS buffer; assay type: physicochemical; conditions: aqueous buffer, kinetic from dmso stock, compound suspended at 300 μM, 25° C.
Procedure: Kinetic solubility was determined by suspending compound at 300 μM at pH 1.2 and 7.4 in PBS buffer. The suspension was equilibrated by shaking at 25° C. at 1100 RPM for 2 hours and then pH was measured following filtration. The filtrate was then diluted by an appropriate factor (e.g. 100-fold). Quantitation was done by LC-MS/MS with reference to a standard solution.

[6] = Permeability in Caco-2 cell monolayer; assay type: in vitro ADME; conditions: human; for efflux ratio: Caco-2; for Papp A→B: Caco-2, apical to basolateral; for Papp B→A: Caco-2, basolateral to apical
Procedure: The intestinal permeability of compound(s) was evaluated in Caco-2 cells by assessing transport across the cell monolayer in the apical to basolateral (A-B) direction. Active efflux was also assessed by measuring transport in the basolateral to apical (BA) direction which enables evaluation of the efflux ratio. Analysis of transport is quantified by tandem mass spectrometry (LC-MS/MS).

[7] = pH 1.2, PBS buffer, read-out: Kinetic Solubility pH = 1.2 (300 μM)
[8] = pH 7.4, PBS buffer, read-out: Kinetic Solubility pH = 7.4 (300 μM)

| Compound | microsomal CLint [1] [µL/min/mg] | half-life [1] [h] | half-life [2] [h] | other results |
| --- | --- | --- | --- | --- |
| COc1cc2c(cc1OC)[C@@H]1C[C@H](OC(=O)C(=O)O)[C@@H](CC(C)C)CN1CC2 (stereo in doubt) [Example 1, (2S,3S,11bS)-9,10-dimethoxy-3-(2-methylpropyl)-1H,2H,3H,4H,6H,7H,11bH-pyrido[2,1-a]isoquinolin-2-yl hydrogen oxalate] | 3.24 | 6.91 | – | Human PS t1/2 (min) [2]: ∞ |
| COc1cc2c(cc1OC)[C@@H]1C[C@H](OC(=O)/C=C/C(=O)O)[C@@H](CC(C)C)CN1CC2 (stereo in doubt) [Example 3, (2E)-4-[[(2S,3S,11bS)-9,10-dimethoxy-3-(2-methylpropyl)-1H,2H,3H,4H,6H,7H,11bH-pyrido[2,1-a]isoquinolin-2-yl]oxy]-4-oxobut-2-enoic acid] | – | – | 12.7 | Human LM t1/2 (min) ([1]; Table 1): ∞ |
| COc1cc2c(cc1OC)[C@H]1C[C@@H](OC(=O)/C=C\C(=O)O)[C@H](CC(C)C)CN1CC2 [Example 4, (2Z)-4-[[(2R,3R,11bR)-9,10-dimethoxy-3-(2-methylpropyl)-1H,2H,3H,4H,6H,7H,11bH-pyrido[2,1-a]isoquinolin-2-yl]oxy]-4-oxobut-2-enoic acid] | < 3.4 | > 3.39 | 55 | – |
| COc1cc2c(cc1OC)[C@H]1C[C@@H](OC(=O)CCCCCCC(=O)O)[C@H](CC(C)C)CN1CC2 [Example 5, 8-[[(2R,3R,11bR)-9,10-dimethoxy-3-(2-methylpropyl)-1H,2H,3H,4H,6H,7H,11bH-pyrido[2,1-a]isoquinolin-2-yl]oxy]-8-oxooctanoic acid] | 3.16 | 3.89 | – | microsomal CLint [3]: 1.04 µL/min/mg; half-life [3]: 56.8 h; microsomal CLint [4]: 50.7 µL/min/mg; half-life [4]: 0.456 h; solubility kinetic at 2 h [5, 7]: 276 µM (≈ 131 µg/mL); solubility kinetic at 2 h [5, 8]: 306 µM (≈ 146 µg/mL); efflux ratio [6]: 0.98; Papp A→B [6]: 22.4 ×10⁻⁶ cm/s; Papp B→A [6]: 22 ×10⁻⁶ cm/s; Human PS t1/2 (min) [2]: ∞ |
| COc1cc2c(cc1OC)[C@H]1C[C@@H](OC(=O)CCC(=O)OC(C)C)[C@H](CC(C)C)CN1CC2 [Example 7, (2R,3R,11bR)-9,10-dimethoxy-3-(2-methylpropyl)-1H,2H,3H,4H,6H,7H,11bH-pyrido[2,1-a]isoquinolin-2-yl 1-isopropyl butanedioate] | 65.8 | 0.176 | > 13.5 | microsomal CLint [3]: 922 µL/min/mg; half-life [3]: 0.0125 h; microsomal CLint [4]: 282 µL/min/mg; half-life [4]: 0.082 h; solubility kinetic at 2 h [5, 7]: 311 µM (≈ 143 µg/mL); solubility kinetic at 2 h [5, 8]: 5.84 µM (≈ 2.7 µg/mL); efflux ratio [6]: 0.84; Papp A→B [6]: 1.78 ×10⁻⁶ cm/s; Papp B→A [6]: 1.5 ×10⁻⁶ cm/s |
| COc1cc2c(cc1OC)[C@H]1C[C@@H](OC(=O)/C=C/C(=O)OC(C)C)[C@H](CC(C)C)CN1CC2 [Example 8, (2R,3R,11bR)-9,10-dimethoxy-3-(2-methylpropyl)-1H,2H,3H,4H,6H,7H,11bH-pyrido[2,1-a]isoquinolin-2-yl 1-isopropyl (2E)-but-2-enedioate] | 98 | 0.118 | > 11.8 | – |
| COc1cc2c(cc1OC)[C@H]1C[C@@H](OC(=O)c3cncc(C(=O)OC(C)C)c3)[C@H](CC(C)C)CN1CC2 [Example 9, 3-((2R,3R,11bR)-3-isobutyl-9,10-dimethoxy-1,3,4,6,7,11b-hexahydro-2H-pyrido[2,1-a]isoquinolin-2-yl) 5-isopropyl pyridine-3,5-dicarboxylate] | 16.3 | 0.708 | – | microsomal CLint [3]: 613 µL/min/mg; half-life [3]: 0.0188 h; microsomal CLint [4]: 121 µL/min/mg; half-life [4]: 0.191 h; solubility kinetic at 2 h [5, 7]: 292 µM (≈ 149 µg/mL); solubility kinetic at 2 h [5, 8]: 0.0018 µM (≈ 0.000919 µg/mL); efflux ratio [6]: 0.95; Papp A→B [6]: 0.202 ×10⁻⁶ cm/s; Papp B→A [6]: 0.191 ×10⁻⁶ cm/s; Human PS t1/2 (min) [2]: ∞ |
| COc1cc2c(cc1OC)[C@H]1C[C@@H](OC(=O)/C=C\C(=O)OC(C)C)[C@H](CC(C)C)CN1CC2 [Example 10, (2R,3R,11bR)-9,10-dimethoxy-3-(2-methylpropyl)-1H,2H,3H,4H,6H,7H,11bH-pyrido[2,1-a]isoquinolin-2-yl 1-isopropyl (2Z)-but-2-enedioate] | 104 | 0.111 | > 3770 | – |
| COc1cc2c(cc1OC)[C@H]1C[C@@H](OC(=O)/C=C/C(=O)N[C@H](C(=O)O)C(C)C)[C@H](CC(C)C)CN1CC2 [Example 11, (2S)-2-[(2E)-4-[[(2R,3R,11bR)-9,10-dimethoxy-3-(2-methylpropyl)-1H,2H,3H,4H,6H,7H,11bH-pyrido[2,1-a]isoquinolin-2-yl]oxy]-4-oxobut-2-enamido]-3-methylbutanoic acid] | 4.24 | 2.95 | 0.225 | – |
| COc1cc2c(cc1OC)[C@H]1C[C@@H](OC(=O)/C=C\C(=O)N[C@@H](Cc3ccccc3)C(=O)O)[C@H](CC(C)C)CN1CC2 [Example 14, (2S)-2-[(2Z)-4-[[(2R,3R,11bR)-9,10-dimethoxy-3-(2-methylpropyl)-1H,2H,3H,4H,6H,7H,11bH-pyrido[2,1-a]isoquinolin-2-yl]oxy]-4-oxobut-2-enamido]-3-phenylpropanoic acid] | 2.91 | 4.16 | 0.2 | – |
| COc1cc2c(cc1OC)[C@H]1C[C@@H](OC(=O)/C=C/C(=O)O[C@@H]3C[C@@H]4c5cc(OC)c(OC)cc5CCN4C[C@H]3CC(C)C)[C@H](CC(C)C)CN1CC2 [Example 18, bis[(2R,3R,11bR)-9,10-dimethoxy-3-(2-methylpropyl)-1H,2H,3H,4H,6H,7H,11bH-pyrido[2,1-a]isoquinolin-2-yl] (2E)-but-2-enedioate] | 1.11 | 20.8 | > 11 | – |
| COc1cc2c(cc1OC)[C@H]1C[C@@H](OC(=O)/C=C\C(=O)O[C@@H]3C[C@@H]4c5cc(OC)c(OC)cc5CCN4C[C@H]3CC(C)C)[C@H](CC(C)C)CN1CC2 [Example 19, bis[(2R,3R,11bR)-9,10-dimethoxy-3-(2-methylpropyl)-1H,2H,3H,4H,6H,7H,11bH-pyrido[2,1-a]isoquinolin-2-yl] (2Z)-but-2-enedioate] | 0.84 | > 13.7 | 134 | – |
| COc1cc2c(cc1OC)[C@H]1C[C@@H](OC(=O)C(=O)O[C@@H]3C[C@@H]4c5cc(OC)c(OC)cc5CCN4C[C@H]3CC(C)C)[C@H](CC(C)C)CN1CC2 [Example 20, Bis[(2R,3R,11bR)-9,10-dimethoxy-3-(2-methylpropyl)-1H,2H,3H,4H,6H,7H,11bH-pyrido[2,1-a]isoquinolin-2-yl] oxalate] | 3.83 | 3.2 | 1.35 | – |
| CCNC(=O)O[C@@H]1C[C@@H]2c3cc(OC)c(OC)cc3CCN2C[C@H]1CC(C)C [Example 21, (2R,3R,11bR)-9,10-dimethoxy-3-(2-methylpropyl)-1H,2H,3H,4H,6H,7H,11bH-pyrido[2,1-a]isoquinolin-2-yl N-ethylcarbamate] | 1.67 | 8.05 | > 341 | – |
| COc1cc2c(cc1OC)[C@H]1C[C@@H](OC(=O)NC(C)C)[C@H](CC(C)C)CN1CC2 [Example 22, (2R,3R,11bR)-9,10-dimethoxy-3-(2-methylpropyl)-1H,2H,3H,4H,6H,7H,11bH-pyrido[2,1-a]isoquinolin-2-yl N-isopropylcarbamate] | 5.15 | 2.31 | > 65.5 | – |
| CCC(=O)OCOC(=O)O[C@@H]1C[C@@H]2c3cc(OC)c(OC)cc3CCN2C[C@H]1CC(C)C [Example 24, [([[(2R,3R,11bR)-9,10-dimethoxy-3-(2-methylpropyl)-1H,2H,3H,4H,6H,7H,11bH-pyrido[2,1-a]isoquinolin-2-yl]oxy]carbonyl)oxy]methylpropanoate] | – | – | 1.42 | – |
| COc1cc2c(cc1OC)[C@H]1C[C@@H](OC(=O)OCOC(=O)C(C)C)[C@H](CC(C)C)CN1CC2 [Example 25, [([[(2R,3R,11bR)-9,10-dimethoxy-3-(2-methylpropyl)-1H,2H,3H,4H,6H,7H,11bH-pyrido[2,1-a]isoquinolin-2-yl]oxy]carbonyl)oxy]methyl 2-methylpropanoate] | – | – | 1.98 | – |
| COc1cc2c(cc1OC)[C@H]1C[C@@H](OC(=O)OCOC(=O)CC(C)C)[C@H](CC(C)C)CN1CC2 [Example 26, [([[(2R,3R,11bR)-9,10-dimethoxy-3-(2-methylpropyl)-1H,2H,3H,4H,6H,7H,11bH-pyrido[2,1-a]isoquinolin-2-yl]oxy]carbonyl)oxy]methyl 3-methylbutanoate] | 1380 | 0.00833 | 1.39 | – |

— patent US20210087191A1, “SUBSTITUTED 3-ISOBUTYL-9,10-DIMETHOXY-1,3,4,6,7,11B-HEXAHYDRO-2H-PYRIDO[2,1-a]ISOQUINOLIN-2-OL COMPOUNDS, THEIR [sequence], AND USE THEREOF” (DISPERSOL TECHNOLOGIES, LLC, priority 2020, published 2021)
